Data from publication PMC6764291 (Frontiers in Oncology, 2019).
“Also recorded” adds a separate entry of the source.

How the values were obtained:
[1] = test system: HCT116; experiment: Cell cycle analysis by flow cytometry, HCT116; format: cell-based; settings: for G2/M-phase / S-phase: viable cells, DAPI
Method: (§1) Cells were irradiated using ^137Cs gamma-ray photons at a dose-rate of ~1 Gy/min (Best Theratronics Gammacell® 40Exactor, Springfield, USA).
Cells were collected and fixed in 70% ethanol at 6, 12, 24, 48, 72, and 96 h post-irradiation and stored at −20°C. For cell cycle analyses, 6, 12, 24, and 48 h samples were rehydrated and washed twice with PBS and stained with DAPI (Sigma Aldrich Sweden, Stockholm, Sweden) using 1 μg/ml for 30 min. 24, 48, 72, and 96 h samples were stained with caspase-3 and Noxa (ab13847 (1:500) and ab13654 (1:1,000), AbCam, Cambridge, UK) overnight at 4°C, followed by incubation with fluorescent labeled secondary antibodies for 90 min (ab 1:400) at room temperature. Analyses were performed using a BD LSR Fortessa flow cytometer (Becton Dickinson Biosciences, San Jose, USA). Data analyses for cleaved caspase-3 and Noxa were performed with BD FACSDiVa (Becton Dickinson Biosciences, San Jose, USA), while cell cycle analyses of exclusively viable cells were performed using FlowJo (Becton, Dickinson Biosciences, San Jose, USA). Coefficient of variation (CV) values, were below seven for all samples.

[2] = test system: p53; experiment: Western Blot p53 expression, UM-SCC-74B; format: cell-based, human; settings: n ≥ 3
Method: as §1
(§2) Whole-cell lysates were prepared according to standard protocols. Protein concentrations were measured using a DeNovix DS-11 spectrophotometer (DeNovix Inc., Wilmington, DE, USA). Samples were separated on 4–12% Bis-Tris SDS gels and transferred to a nitrocellulose membrane (ThermoFisher Scientific, Uppsala, Sweden) by wet-transfer blotting. The membrane was blocked for 1 h in PBS with 5% BSA before incubation with primary antibodies targeting p53, caspase-3, NaK-ATPase and GLB1 (DO-1 (ab1101), ab13847, ab76020 and ab128993, AbCam, Cambridge, UK) and β-actin (A5441, Sigma Aldrich Sweden, Stockholm, Sweden) at 4°C overnight. After washing with PBS with 1% Tween-20, the membrane was incubated with respective and species-specific Horse Radish Peroxidase-labeled secondary antibody (ThermoFisher Scientific, Waltham, MA, USA) and stained with electro-chemiluminescent solution (Immobilon, Millipore, Bedford, USA).

[3] = test system: cleaved caspase-3; experiment: Western Blot cleaved caspase-3 expression, UM-SCC-74B; format: cell-based, human
Method: as §1, §2

[4] = test system: GLB-1; experiment: Western Blot GLB-1 expression, UM-SCC-74B; format: cell-based, human; settings: 2 Gy + 20 μM PM2, 72 h, n ≥ 3
Method: as §1, §2

[5] = test system: p53^−/− tumors; settings: mice, PM2 combined with radiotherapy; cited from earlier work
[6] = Combination 2 Gy + 20 μM PM2, 6 h
[7] = Combination 2 Gy + 20 μM PM2, 12 h
[8] = Combination 2 Gy + 20 μM PM2, 24 h
[9] = Combination 2 Gy + 20 μM PM2, 48 h

CC(=O)N[C@H](C(=O)N[C@@H](CO)C(=O)N[C@@H](Cc1ccccc1)C(=O)N[C@]1(C)CCCCCCC=CCCC[C@@](C)(C(N)=O)NC(=O)[C@H](CC(C)C)NC(=O)[C@H](CC(C)C)NC(=O)[C@H](C)NC(=O)[C@H](Cc2c[nH]c3ccccc23)NC(=O)[C@H](Cc2ccc(O)cc2)NC(=O)[C@H](CCC(=O)O)NC1=O)[C@@H](C)O [PM2] gave a G2/M-phase ([1]; 20 μM PM2 alone, 6 h) of 19.4%, a S-phase ([1]; 20 μM PM2 alone, 6 h) of 55.8% and a G2/M-phase ([1]; 20 μM PM2 alone, 12 h) of 30.1%. It also gave a S-phase ([1]; 20 μM PM2 alone, 12 h) of 35.1%, a G2/M-phase ([1]; 20 μM PM2 alone, 24 h) of 21.1% and a S-phase ([1]; 20 μM PM2 alone, 24 h) of 10.7%. For the same compound, the G2/M-phase ([1]; 20 μM PM2 alone, 48 h) was 20.6%, the S-phase ([1]; 20 μM PM2 alone, 48 h) was 23% and the “S-phase reduction / depletion” value ([1]; 2 Gy + 20 μM PM2) was “S-phase reduction occurred as early as 12 h post-treatment; also recorded: S-phase depletion at 24 h post-treatment”. For the same compound, the “G2/M-phase cells versus untreated controls” value ([1]; 2 Gy + 20 μM PM2, throughout 48 h) was “More than twice as many cells”, the G2/M-phase [1, 6] was 39.9% and the S-phase [1, 6] was 44.9%. For the same compound, the G2/M-phase [1, 7] was 53.8%, the S-phase [1, 7] was 17.3% and the G2/M-phase [1, 8] was 42.7%. The S-phase [1, 8] was 5.51%, the G2/M-phase [1, 9] was 29.9% and the S-phase [1, 9] was 17.5%. The p53 expression ([2]; 20 μM PM2, 24 h) was “increased expression of p53”, the “p53 expression, combination versus PM2 alone” value ([2]; 2 Gy + 20 μM PM2, 24 h) was “significant increase; also recorded: further increased wt p53 levels” and the “increase in wt p53 levels following combination therapy” value ([2]; 2 Gy + 20 μM PM2, 24 h, normalized to controls) was roughly 5 fold. For the same compound, the “increase in cleaved caspase-3 levels” value ([3]; 20 μM PM2, 72 h, normalized to controls, n ≥ 3) was “Four-fold”, the “cleaved caspase-3 expression” value ([3]; 20 μM PM2-treated samples, n ≥ 3) was “increase in expression” and the “cleaved caspase-3 expression, combination” value ([3]; 2 Gy + 20 μM PM2, n ≥ 3) was “predominant”. The “GLB-1 expression, combination versus irradiated” value [4] was “significant increase” and the “effects on p53^−/− tumors” value [5] was “negligible”.
